Patent publication US20110245284A1, “Alkoxy- and Alkylthio-Substituted Anilinopyrimidines” (Bayer CropScience AG, priority 2008, published 2011)

System: Pyrenophora teres
Assay: Pyrenophora teres test (barley) / protective
Assay type: in vivo
Details: 192 h, active compound concentration 500 ppm, evaluation 8 days after inoculation, read-out: efficacy
Procedure: After the spray coating has dried on, the plants are sprayed with a spore suspension of Pyrenophora teres. The plants remain in an incubation cabinet for 48 hours at 20° C. and 100% relative atmospheric humidity.
CC[S+]([O-])c1cccc(Nc2ncc(Cl)c(NC3CCC3)n2)c1 (centres unmarked) [Example 28, 5-Chloro-N^4-cyclobutyl-N^2-[3-(ethylsulphinyl)phenyl]pyrimidine-2,4-diamine] gave a pest or weed control at 500 ppm of no less than 70%.
COCc1cccc(Nc2ncc(Cl)c(N(C)C3CC3)n2)c1 [Example 58] showed a pest or weed control at 500 ppm of no less than 70%.
COCc1cccc(Nc2ncc(Cl)c(NCCF)n2)c1 [Example 138] showed a pest or weed control at 500 ppm of no less than 70%.
With COCC(O)c1cccc(Nc2ncc(C(F)(F)F)c(NC3CC3)n2)c1 (centres unmarked) [Example 195] the pest or weed control at 500 ppm was no less than 70%.

System: not listed separately
Assay: logP by LC-MS on reversed-phase columns (C 18), method [b], acidic range pH 2.7
Assay type: physicochemical
Details: pH 2.7, log p
Procedure: (§1) The logP values were determined in accordance with EEC Directive 79/831 Annex V.A8 by HPLC (High Performance Liquid Chromatography) on reversed-phase columns (C 18), using the methods below:
[b] The LC-MS determination in the acidic range is carried out at pH 2.7 using the mobile phases 0.1% aqueous formic acid and acetonitrile (contains 0.1% formic acid), linear gradient from 10% acetonitrile to 95% acetonitrile.
In the case of CC[S+]([O-])c1cccc(Nc2ncc(Cl)c(NC3CCC3)n2)c1 (centres unmarked) [Example 28, 5-Chloro-N^4-cyclobutyl-N^2-[3-(ethylsulphinyl)phenyl]pyrimidine-2,4-diamine], the chromatographic logP is reported as 1.76.
COCc1cccc(Nc2ncc(Cl)c(N(C)C3CC3)n2)c1 [Example 58] showed a chromatographic logP of 2.7.
Work on CCC(SC)c1cccc(Nc2ncc(Cl)c(NC3CC3)n2)c1 (centres unmarked) [Example 61, 5-Chloro-N^4-cyclopropyl-N^2-{3-[1-(methylsulphanyl)propyl]phenyl}pyrimidine-2,4-diamine] yielded a chromatographic logP of 2.94.
In the case of COCc1cccc(Nc2ncc(Cl)c(NCCF)n2)c1 [Example 138], the chromatographic logP is reported as 1.48.
Work on COCC(O)c1cccc(Nc2ncc(C(F)(F)F)c(NC3CC3)n2)c1 (centres unmarked) [Example 195] yielded a chromatographic logP of 1.97.

System: not listed separately
Assay: logP by LC-MS on reversed-phase columns (C 18), method [c], neutral range pH 7.8
Assay type: physicochemical
Details: pH 7.8
Procedure: as §1
[c] The LC-MS determination in the neutral range is carried out at pH 7.8 using the mobile phases 0.001 molar aqueous ammonium bicarbonate solution and acetonitrile, linear gradient from 10% acetonitrile to 95% acetonitrile.
Work on COCc1cccc(Nc2ncc(Cl)c(N(C)C3CC3)n2)c1 [Example 58] yielded a chromatographic logP of 3.76.
In the case of COCc1cccc(Nc2ncc(Cl)c(NCCF)n2)c1 [Example 138], the chromatographic logP is reported as 2.57.
For COCC(O)c1cccc(Nc2ncc(C(F)(F)F)c(NC3CC3)n2)c1 (centres unmarked) [Example 195], the chromatographic logP was 2.64.

System: Sphaerotheca fuliginea
Assay: Sphaerotheca test (cucumber) / protective
Assay type: in vivo
Details: Podosphaera fuliginea, 168 h, active compound concentration 500 ppm, evaluation 7 days after inoculation, read-out: efficacy
Procedure: The plants are subsequently placed in a greenhouse at 70% relative atmospheric humidity and a temperature of 23° C.
Work on CC[S+]([O-])c1cccc(Nc2ncc(Cl)c(NC3CCC3)n2)c1 (centres unmarked) [Example 28, 5-Chloro-N^4-cyclobutyl-N^2-[3-(ethylsulphinyl)phenyl]pyrimidine-2,4-diamine] yielded a pest or weed control at 500 ppm of no less than 70%.
COCc1cccc(Nc2ncc(Cl)c(N(C)C3CC3)n2)c1 [Example 58] showed a pest or weed control at 500 ppm of no less than 70%.
Molecule CCC(SC)c1cccc(Nc2ncc(Cl)c(NC3CC3)n2)c1 (centres unmarked) [Example 61, 5-Chloro-N^4-cyclopropyl-N^2-{3-[1-(methylsulphanyl)propyl]phenyl}pyrimidine-2,4-diamine] has a pest or weed control at 500 ppm of no less than 70%.
COCc1cccc(Nc2ncc(Cl)c(NCCF)n2)c1 [Example 138] showed a pest or weed control at 500 ppm of no less than 70%.
COCC(O)c1cccc(Nc2ncc(C(F)(F)F)c(NC3CC3)n2)c1 (centres unmarked) [Example 195] gave a pest or weed control at 500 ppm of no less than 70%.

System: Venturia inaequalis
Assay: Venturia test (apple) / protective
Assay type: in vivo
Details: 240 h, active compound concentration 100 ppm, evaluation 10 days after inoculation, read-out: efficacy
Procedure: After the spray coating has dried on, the plants are inoculated with an aqueous conidia suspension of the apple scab pathogen Venturia inaequalis and then remain for 1 day in an incubation cabinet at about 20° C. and 100% relative atmospheric humidity.
CC[S+]([O-])c1cccc(Nc2ncc(Cl)c(NC3CCC3)n2)c1 (centres unmarked) [Example 28, 5-Chloro-N^4-cyclobutyl-N^2-[3-(ethylsulphinyl)phenyl]pyrimidine-2,4-diamine] gave a pest or weed control at 100 ppm of no less than 70%.
With COCc1cccc(Nc2ncc(Cl)c(N(C)C3CC3)n2)c1 [Example 58] the pest or weed control at 100 ppm was no less than 70%.
CCC(SC)c1cccc(Nc2ncc(Cl)c(NC3CC3)n2)c1 (centres unmarked) [Example 61, 5-Chloro-N^4-cyclopropyl-N^2-{3-[1-(methylsulphanyl)propyl]phenyl}pyrimidine-2,4-diamine] gave a pest or weed control at 100 ppm of no less than 70%.
With COCc1cccc(Nc2ncc(Cl)c(NCCF)n2)c1 [Example 138] the pest or weed control at 100 ppm was no less than 70%.

System: not listed separately
Assay: logP by HPLC on reversed-phase columns (C 18), method [a], acidic range pH 2.3
Assay type: physicochemical
Details: pH 2.3, logP (pH2.3)
Procedure: as §1
[a] The determination is carried out in the acidic range at pH 2.3 using the mobile phases 0.1% aqueous phosphoric acid and acetonitrile, linear gradient from 10% acetonitrile to 95% acetonitrile.
With CC[S+]([O-])c1cccc(Nc2ncc(Cl)c(NC3CCC3)n2)c1 (centres unmarked) [Example 28, 5-Chloro-N^4-cyclobutyl-N^2-[3-(ethylsulphinyl)phenyl]pyrimidine-2,4-diamine] the chromatographic logP was 1.76.
With CCC(SC)c1cccc(Nc2ncc(Cl)c(NC3CC3)n2)c1 (centres unmarked) [Example 61, 5-Chloro-N^4-cyclopropyl-N^2-{3-[1-(methylsulphanyl)propyl]phenyl}pyrimidine-2,4-diamine] the chromatographic logP was 2.59.

System: Rhizoctonia solani
Assay: Rhizoctonia test (rice) / protective
Assay type: in vivo
Details: 96 h, active compound concentration 250 ppm, evaluation 4 days after inoculation, read-out: efficacy
In the case of CC[S+]([O-])c1cccc(Nc2ncc(Cl)c(NC3CCC3)n2)c1 (centres unmarked) [Example 28, 5-Chloro-N^4-cyclobutyl-N^2-[3-(ethylsulphinyl)phenyl]pyrimidine-2,4-diamine], the pest or weed control at 250 ppm is reported as no less than 80%.
With CCC(SC)c1cccc(Nc2ncc(Cl)c(NC3CC3)n2)c1 (centres unmarked) [Example 61, 5-Chloro-N^4-cyclopropyl-N^2-{3-[1-(methylsulphanyl)propyl]phenyl}pyrimidine-2,4-diamine] the pest or weed control at 250 ppm was no less than 80%.
For COCC(O)c1cccc(Nc2ncc(C(F)(F)F)c(NC3CC3)n2)c1 (centres unmarked) [Example 195], the pest or weed control at 250 ppm was no less than 80%.

System: Cochliobolus miyabeanus
Assay: Cochliobolus test (rice) / protective
Details: Bipolaris oryzae, in Oryza sativa, 96 h, read-out: efficacy
Procedure: Cochliobolus Test (Rice)/Protective • Solvent: 28.5 parts by weight of acetone • Emulsifier: 1.5 parts by weight of alkylaryl polyglycol ether
1 day after the treatment, the plants are inoculated with an aqueous spore suspension of Cochliobolus miyabeanus. The plants are then placed in a greenhouse at 100% relative atmospheric humidity and 25° C.
Evaluation is carried out 4 days after the inoculation.
Molecule CC[S+]([O-])c1cccc(Nc2ncc(Cl)c(NC3CCC3)n2)c1 (centres unmarked) [Example 28, 5-Chloro-N^4-cyclobutyl-N^2-[3-(ethylsulphinyl)phenyl]pyrimidine-2,4-diamine] has a pest or weed control at 250 ppm of no less than 80%.

System: Alternaria solani
Assay: Alternaria test (tomato) / protective
Assay type: in vivo
Details: 72 h, active compound concentration 100 ppm, evaluation 3 days after inoculation, read-out: efficacy
Procedure: The plants are then placed in an incubation cabinet at about 20° C. and 100% relative atmospheric humidity.
Molecule CC[S+]([O-])c1cccc(Nc2ncc(Cl)c(NC3CCC3)n2)c1 (centres unmarked) [Example 28, 5-Chloro-N^4-cyclobutyl-N^2-[3-(ethylsulphinyl)phenyl]pyrimidine-2,4-diamine] has a pest or weed control at 100 ppm of no less than 70%.
In the case of CCC(SC)c1cccc(Nc2ncc(Cl)c(NC3CC3)n2)c1 (centres unmarked) [Example 61, 5-Chloro-N^4-cyclopropyl-N^2-{3-[1-(methylsulphanyl)propyl]phenyl}pyrimidine-2,4-diamine], the pest or weed control at 100 ppm is reported as no less than 70%.
With COCc1cccc(Nc2ncc(Cl)c(NCCF)n2)c1 [Example 138] the pest or weed control at 100 ppm was no less than 70%.

System: not listed separately
Assay: logP by HPLC on reversed-phase columns (C 18), method [a], acidic range pH 2.3
Assay type: physicochemical
Details: pH 2.94, logP (pH2.94)
CC(O)c1cccc(Nc2ncc(Cl)c(NC3CC3)n2)c1 (centres unmarked) [Ic-IV-1, 1-(3-{[5-Chloro-4-(cyclopropylamino)pyrimidin-2-yl]amino}phenyl)ethanol] showed a chromatographic logP of 1.25.
In the case of CCC[S+]([O-])c1cccc(Nc2ncc(C(F)(F)F)c(Cl)n2)c1 (centres unmarked) [Xb-1, 4-Chloro-N-[3-(propylsulphinyl)phenyl]-5-(trifluoromethyl)pyrimidin-2-amine], the chromatographic logP is reported as 1.76.

System: Pyricularia oryzae
Assay: whole plant or invertebrate
Assay type: in vivo
Details: 120 h, read-out: efficacy
With CC[S+]([O-])c1cccc(Nc2ncc(Cl)c(NC3CCC3)n2)c1 (centres unmarked) [Example 28, 5-Chloro-N^4-cyclobutyl-N^2-[3-(ethylsulphinyl)phenyl]pyrimidine-2,4-diamine] the pest or weed control at 250 ppm was no less than 80%.
CCC(SC)c1cccc(Nc2ncc(Cl)c(NC3CC3)n2)c1 (centres unmarked) [Example 61, 5-Chloro-N^4-cyclopropyl-N^2-{3-[1-(methylsulphanyl)propyl]phenyl}pyrimidine-2,4-diamine] gave a pest or weed control at 250 ppm of no less than 80%.
COCc1cccc(Nc2ncc(Cl)c(NCCF)n2)c1 [Example 138] showed a pest or weed control at 250 ppm of no less than 80%.
In the case of COCC(O)c1cccc(Nc2ncc(C(F)(F)F)c(NC3CC3)n2)c1 (centres unmarked) [Example 195], the pest or weed control at 250 ppm is reported as no less than 80%.

System: Leptosphaeria nodorum
Assay: Leptosphaeria nodorum test (wheat) / protective
Assay type: in vivo
Details: Parastagonospora nodorum, active compound concentration 500 ppm, evaluation 7-9 days after inoculation, read-out: efficacy
Procedure: Thereafter, the plants are placed in a greenhouse at 90% relative atmospheric humidity and a temperature of 22° C.
In the case of CC[S+]([O-])c1cccc(Nc2ncc(Cl)c(NC3CCC3)n2)c1 (centres unmarked) [Example 28, 5-Chloro-N^4-cyclobutyl-N^2-[3-(ethylsulphinyl)phenyl]pyrimidine-2,4-diamine], the pest or weed control at 500 ppm is reported as no less than 70%.
For COCc1cccc(Nc2ncc(Cl)c(N(C)C3CC3)n2)c1 [Example 58], the pest or weed control at 500 ppm was no less than 70%.
In the case of CCC(SC)c1cccc(Nc2ncc(Cl)c(NC3CC3)n2)c1 (centres unmarked) [Example 61, 5-Chloro-N^4-cyclopropyl-N^2-{3-[1-(methylsulphanyl)propyl]phenyl}pyrimidine-2,4-diamine], the pest or weed control at 500 ppm is reported as no less than 70%.
With COCc1cccc(Nc2ncc(Cl)c(NCCF)n2)c1 [Example 138] the pest or weed control at 500 ppm was no less than 70%.
Work on COCC(O)c1cccc(Nc2ncc(C(F)(F)F)c(NC3CC3)n2)c1 (centres unmarked) [Example 195] yielded a pest or weed control at 500 ppm of no less than 70%.

System: Fusarium proliferatum
Assay: Production of fumonisin FB1 by Fusarium proliferatum (microtitre plates; FB1 by HPLC-MS/MS, growth by OD620)
Assay type: cell-based
Details: Fusarium proliferatum, 144 h, read-out: pI50 Fum
Work on CC[S+]([O-])c1cccc(Nc2ncc(Cl)c(NC3CCC3)n2)c1 (centres unmarked) [Example 28, 5-Chloro-N^4-cyclobutyl-N^2-[3-(ethylsulphinyl)phenyl]pyrimidine-2,4-diamine] yielded an IC50 of 3.98 µM.

Same assay, conditions: Fusarium proliferatum, 144 h; growth, OD620 at the beginning and after 6 days; read-out: pI50 growth (converted)
In the case of CC[S+]([O-])c1cccc(Nc2ncc(Cl)c(NC3CCC3)n2)c1 (centres unmarked) [Example 28, 5-Chloro-N^4-cyclobutyl-N^2-[3-(ethylsulphinyl)phenyl]pyrimidine-2,4-diamine], the IC50 is reported as 20 µM.

System: Fusarium graminearum
Assay: microbe, parasite or virus in culture
Assay type: cell-based
Details: 168 h, read-out: DON/AcDON-inhibitory activity
COCc1cccc(Nc2ncc(Cl)c(N(C)C3CC3)n2)c1 [Example 58] gave an inhibition at 50 µM greater than 80%.
In the case of CCC(SC)c1cccc(Nc2ncc(Cl)c(NC3CC3)n2)c1 (centres unmarked) [Example 61, 5-Chloro-N^4-cyclopropyl-N^2-{3-[1-(methylsulphanyl)propyl]phenyl}pyrimidine-2,4-diamine], the inhibition at 50 µM is reported as greater than 80%.
COCc1cccc(Nc2ncc(Cl)c(NCCF)n2)c1 [Example 138] showed an inhibition at 50 µM greater than 80%.
COCC(O)c1cccc(Nc2ncc(C(F)(F)F)c(NC3CC3)n2)c1 (centres unmarked) [Example 195] showed an inhibition at 50 µM greater than 80%.
